Data: US20210324005A1, “Beta-Arrestin Effectors and Compositions and Methods of Use Thereof” (Trevena, Inc., priority 2020, published 2021)

What was measured:
rat AT1aR = target: T1, rat AT1aR (Rattus norvegicus, UniProt P25095); assay: PathHunter β-arrestin-2 recruitment assay, rat AT1aR; format: cell-based; details: PathHunter β-arrestin HEK293 cells; inactive = EC50 greater than 10 uM
T1 sequence (P25095 1-359): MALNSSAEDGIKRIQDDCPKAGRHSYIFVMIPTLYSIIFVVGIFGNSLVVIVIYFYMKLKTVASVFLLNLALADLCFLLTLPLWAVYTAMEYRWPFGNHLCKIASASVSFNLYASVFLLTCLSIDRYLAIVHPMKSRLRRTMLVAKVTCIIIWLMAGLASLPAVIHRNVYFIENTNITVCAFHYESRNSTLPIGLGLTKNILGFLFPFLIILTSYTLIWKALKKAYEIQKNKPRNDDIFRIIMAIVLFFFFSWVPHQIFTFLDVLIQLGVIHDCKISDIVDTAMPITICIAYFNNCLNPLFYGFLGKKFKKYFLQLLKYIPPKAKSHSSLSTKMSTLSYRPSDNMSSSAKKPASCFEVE
Description: The proximal event in β-arrestin function mediated by GPCRs is recruitment to receptors following ligand binding and receptor phosphorylation by GRK's. Thus, the measure of β-arrestin recruitment was used to determine ligand efficacy for β-arrestin function.
B-arrestin-2 recruitment to the human and rat angiotensin 2 type 1 receptor (human AT1R and rat AT1aR, respectively) was measured with the PathHunter™ β-arrestin assay (DiscoveRx Corporation, Fremont Calif.). Cells, plasmid(s), and detection reagent(s) were purchased from DiscoveRx, and assays were performed per the manufacturer's instructions. Human AT1R and rat AT1aR were cloned into the pCMV-ProLink vector, verified by sequencing, and transfected into PathHunter β-arrestin HEK293 cells. Stably transfected clonal cell lines were selected with Hygromycin and G418. These clonal cell lines were used for all experiments.
For assays, 25,000 cells were seeded per well in 96-well microplates in volumes of 90 μL and allowed to grow overnight at 37° C. in 5% CO2. Peptides provided herein were dissolved in deionized water to a concentration of 1 mM. […] The microplates were then incubated at room temperature for 60 minutes, and then luminescence was measured using a NOVOstar microplate reader purchased from BMG Labtech. B-arrestin-2 recruitment to receptors was measured as relative luminescence intensity expressed in arbitrary units.

D-Dimer response = assay: Reduction in IAS and FAS D-Dimer response in patients with COVID-19 infection; format: in vivo, human; details: COVID-19 patients, infused at 12 mg/hr for up to 7 days
Description: D-Dimer formation is elevated in patients with ARDS and COVID. A study was performed to determine the ability of TRV027 to reduce the effects of D-Dimer formation. […] Each group was monitored for an IAS D-Dimer response (>30% reduction) and a FAS D-Dimer response (>30% reduction). In the control group, 2/8 patients had greater than a 30% reduction in the IAS D-Dimer response and 1/7 patients had greater than a 30% reduction in the FAS D-Dimer response. […] Therefore, the data illustrates the effect of a peptide as provided for herein can have on the reduction in the D-Dimer response. It is anticipated that the reduction in the D-Dimer response as measured by these assays will lead to clinical benefit in patients that are infected and/or hospitalized with COVID-19.

[1] = target: T2, human angiotensin 2 type 1 receptor (human, UniProt P30556 1-359); assay: cell-based or functional assay
T2 sequence (looked up): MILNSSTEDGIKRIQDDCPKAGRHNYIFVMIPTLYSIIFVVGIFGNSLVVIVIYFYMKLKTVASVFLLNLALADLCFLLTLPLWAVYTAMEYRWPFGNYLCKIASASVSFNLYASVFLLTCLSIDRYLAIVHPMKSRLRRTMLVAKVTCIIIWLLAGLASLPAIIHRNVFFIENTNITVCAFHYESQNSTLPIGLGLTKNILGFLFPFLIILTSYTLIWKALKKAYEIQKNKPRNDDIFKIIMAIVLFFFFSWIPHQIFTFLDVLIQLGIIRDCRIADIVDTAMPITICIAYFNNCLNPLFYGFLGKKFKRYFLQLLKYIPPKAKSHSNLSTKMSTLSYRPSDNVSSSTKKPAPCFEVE

[2] = target: T3, rat angiotensin 2 type 1 receptor (rat, UniProt P25095 1-359); assay: cell-based or functional assay
T3 sequence (looked up): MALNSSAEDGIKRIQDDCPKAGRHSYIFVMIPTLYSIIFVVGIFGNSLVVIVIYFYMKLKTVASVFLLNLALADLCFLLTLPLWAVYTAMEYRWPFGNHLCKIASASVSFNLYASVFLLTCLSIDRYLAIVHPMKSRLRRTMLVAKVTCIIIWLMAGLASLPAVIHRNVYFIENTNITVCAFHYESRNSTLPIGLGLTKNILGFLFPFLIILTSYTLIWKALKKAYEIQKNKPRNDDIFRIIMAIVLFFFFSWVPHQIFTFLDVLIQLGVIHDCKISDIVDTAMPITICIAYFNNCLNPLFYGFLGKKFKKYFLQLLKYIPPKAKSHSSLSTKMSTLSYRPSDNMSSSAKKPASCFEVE

CCCCC(=O)N(Cc1ccc(-c2ccccc2-c2nnn[nH]2)cc1)[C@H](C(=O)O)C(C)C [Valsartan]
rat AT1aR b-arrestin2 EC50 (M) (rat AT1aR): inactive

CC[C@H](C)[C@H](NC(=O)[C@H](Cc1ccc(O)cc1)NC(=O)[C@@H](NC(=O)[C@H](CCCNC(=N)N)NC(=O)CNC)C(C)C)C(=O)N[C@@H](Cc1cnc[nH]1)C(=O)N1CCC[C@H]1C(=O)N[C@H](C)C(=O)O [SEQ ID NO: 27, Sar-Arg-Val-Tyr-Ile-His-Pro-D-Ala-OH]
patients with greater than 30% reduction in the FAS D-Dimer response (D-Dimer response): 4 out of 9 | patients with greater than 30% reduction in the IAS D-Dimer response (D-Dimer response): 5 out of 11

ARVYIHPA (NMAla (N-Methyl-L-alanine) at X1; D-Ala at X8) [SEQ ID NO: 44 (NMAla-Arg-Val-Tyr-Ile-His-Pro-D-Ala-OH)]
b-arrestin2 Max (%) [1]: 47.3% | b-arrestin2 Max (%) [2]: 71.9%
